Data: patent publication US20260376293A1, “METHODS FOR STUDYING GPR158 PHARMACOLOGY AND IDENTIFICATION OF ITS LIGANDS” (UNIVERSITY OF FLORIDA RESEARCH FOUNDATION, INCORPORATED, priority 2022, published 2026)

Biological target: T1, GPR158 (Homo sapiens, UniProt Q5T848)
T1 sequence (Q5T848 24-1215): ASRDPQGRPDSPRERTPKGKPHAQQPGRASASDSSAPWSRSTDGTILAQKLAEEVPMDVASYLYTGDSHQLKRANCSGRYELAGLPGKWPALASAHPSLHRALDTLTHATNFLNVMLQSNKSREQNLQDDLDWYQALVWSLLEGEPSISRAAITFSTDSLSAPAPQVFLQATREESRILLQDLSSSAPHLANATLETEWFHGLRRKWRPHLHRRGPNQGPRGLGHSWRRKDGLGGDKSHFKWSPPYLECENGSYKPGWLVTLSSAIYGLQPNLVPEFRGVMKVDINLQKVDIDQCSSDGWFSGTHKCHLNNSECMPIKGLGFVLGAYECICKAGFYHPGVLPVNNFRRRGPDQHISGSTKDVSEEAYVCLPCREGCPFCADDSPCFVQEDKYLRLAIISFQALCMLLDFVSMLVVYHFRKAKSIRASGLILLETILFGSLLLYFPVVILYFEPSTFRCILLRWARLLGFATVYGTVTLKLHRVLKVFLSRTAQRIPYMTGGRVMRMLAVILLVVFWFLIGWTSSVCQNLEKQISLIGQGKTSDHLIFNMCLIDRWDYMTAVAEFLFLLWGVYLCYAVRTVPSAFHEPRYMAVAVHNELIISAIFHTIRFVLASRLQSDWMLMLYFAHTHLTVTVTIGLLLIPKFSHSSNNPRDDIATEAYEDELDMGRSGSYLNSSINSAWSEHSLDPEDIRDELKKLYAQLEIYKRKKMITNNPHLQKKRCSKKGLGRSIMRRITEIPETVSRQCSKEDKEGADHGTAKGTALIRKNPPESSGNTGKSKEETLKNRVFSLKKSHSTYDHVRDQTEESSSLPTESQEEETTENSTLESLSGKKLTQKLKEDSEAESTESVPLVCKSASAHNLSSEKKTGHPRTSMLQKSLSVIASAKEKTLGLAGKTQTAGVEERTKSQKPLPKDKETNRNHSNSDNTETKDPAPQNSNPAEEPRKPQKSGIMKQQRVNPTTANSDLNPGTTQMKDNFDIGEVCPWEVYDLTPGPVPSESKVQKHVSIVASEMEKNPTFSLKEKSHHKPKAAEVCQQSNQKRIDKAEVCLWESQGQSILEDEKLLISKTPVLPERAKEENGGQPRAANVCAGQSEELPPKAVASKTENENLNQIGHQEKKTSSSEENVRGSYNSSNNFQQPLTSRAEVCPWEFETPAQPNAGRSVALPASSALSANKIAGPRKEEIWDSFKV
Assay: BRET G protein activation assay
Type: cell-based
Set-up: expressed in transfected cells; host or cells: HEK293FT
Conditions: panel of Gα subunits; 0.1 mM; HEK293 cells
Protocol: FIGS. 5A-5I. Lack of the effects of glycine or taurine on GPR158 coupling to G proteins. A) Schematic of the assay design to monitor GPCR induced G protein activation. B-I) Representative traces evaluating G protein activation in BRET-based assay. The assay measures generation of the BRET signal between Gβγ and its reporter masGRK3CT-NLuc co-transfected into HEK293 cells with indicated Gα. The reaction is initiated by the addition of glycine (0.1 mM, square symbols) or taurine (0.1 mM triangle symbols) to GPR158 expressing cells. Control reactions conducted in parallel utilized canonical receptors and their ligands at 0.1 mM. The arrow indicates the injection time point of the ligand.
The inventors further tested whether glycine or taurine could induce GPR158 to activate G proteins as canonical GPCRs do. In these experiments, the inventors used a reverse strategy where the inventors monitored generation of the BRET signal in the same assay (FIG. 5A).
Measurements of BRET between Venus-Gβ1γ2 and masGRK3ct-Nluc were performed to monitor the release of free Gβγ dimers after activation of heterotrimers containing Gα subunits in living cells (described in detail in Masuho et al., 2015 (40)). […] An empty vector pcDNA3.1(±) was used in order to normalize the quantity of transfected DNA. […]

G protein activation via GPR158 | SMILES
no significant signal generation | NCC(=O)O [glycine]
no significant signal generation | NCCS(=O)(=O)O [taurine, 2-aminoethanesulfonic acid]
